# System: 3T3-L1 cells
# Test: mRNA expression of aP2 and adiponectin in differentiated 3T3-L1 adipocytes (Light Cycler)
# Format: cell-based, mouse
# Settings: 7 days after differentiation induction, non-treatment control = 100, average ± standard error
# Procedure: Next, culture preadipocytes 3T3-L1 were thawed, inoculated in a 100 mm dish and cultured until 3T3-L1 cells reached about 80% confluence. A single dish of 3T3-L1 that had reached about 80% confluence was subcultured to a single 6-well plate and further cultured until the 3T3-L1 cells reached confluence in the 6-well plate, and then the medium was replaced with the differentiation induction medium, followed by differentiation induction. 48 hours later, the medium was replaced with the differentiation promotion medium, and thereafter, the medium was replaced with the differentiation promotion medium every two days. 7 days after the initiation of the differentiation induction, mRNA was extracted using Sepasol-RNA I Super (trade name; manufactured by Nacalai Tesque, Inc.), and the mRNA expression amounts of 36B4, aP2 and adiponectin, which were indicators of an early period of adipocyte differentiation, were measured using Light Cycler (TM). Also, the medium 7 days after the differentiation induction was taken in an amount of 1 mL from each well, and the amount of adiponectin in the medium supernatant was measured using a mouse/rat adiponectin ELISA kit (manufactured by Otsuka Pharmaceutical Co., Ltd.).
# The medium was removed from the above-described 6-well plate, 1 mL of Sepasol(R)-RNA I Super (manufactured by Nacalai Tesque, Inc.) was added to each well, and pipetting was repeated several times so as to disperse the cells. This solution was transferred to a 1.5 mL tube and allowed to stand for 5 minutes at room temperature, and then 200 μL of chloroform was added, stirred well with a vortex stirrer and allowed to stand for 3 minutes at room temperature. The solution was cooled to 4° C. and centrifuged at 12000×g for 15 minutes. While taking great care not to disturb an interface between a phenol layer (a lower layer, yellow) and a water layer (an upper layer, colorless), the water layer alone was transferred to another tube (with a capacity of 1.5 mL). At this time, care was taken not to take proteins floating between these layers. 500 μL of isopropanol was added to the tube and mixed and allowed to stand for 10 minutes at room temperature. The solution was cooled to 4° C. and centrifuged at 12000×g for 10 minutes, followed by removing about 1 mL of the supernatant. To this precipitate, 1 mL of 75% ethanol was added and stirred to suspend the precipitate sufficiently, and then cooled to 4° C. and centrifuged at 12000×g for 10 minutes, followed by removing the supernatant. The resultant precipitate (total RNA) was dried and then dissolved in 20 μL of nuclease free water, thus measuring the concentration of mRNA using NanoDrop (manufactured by SCRUM Inc.).
# The extracted and measured mRNA solution was adjusted to have an mRNA concentration of 1 μg/μL. […]
smiles,measurement,setting,value
"CC(C)=CCC/C(C)=C/COc1c2ccoc2cc2oc(=O)ccc12 [Bergamottin, bergamottin]",Adiponectin mRNA expression amount (ratio to 36B4),1 μM,189.5 ± 9.7
same,aP2 mRNA expression amount (ratio to 36B4),1 μM,157.5 ± 7.3
same,Adiponectin mRNA expression amount (ratio to 36B4),5 μM,227.2 ± 16.0
same,aP2 mRNA expression amount (ratio to 36B4),5 μM,194.6 ± 9.0

# From patent US8257755B2, “Metabolic syndrome-improving agent and medicine, supplement, functional food and food additive containing the same” (ARKRAY, Inc., priority 2005, dated 2012)
